Read-outs that look alike come from different tables or passages of the source.
Tests used:
BACE1 = BACE1 (Homo sapiens, UniProt P56817); assay: In vitro enzymatic BACE FRET assay; type: biochemical; settings: beta secretase enzyme 0.2 nM, FRET substrate 50 nM, pH 4.2
Summary of the method: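 Beta-secretase (0.2 nM) was pre-incubated 1 h with serially diluted inhibitor in 0.05 M acetate pH 4.2, 10% DMSO, 100 uM genapol. Then 50 nM quenched peptide FRET substrate was added for 1 h. The reaction was stopped with Tris to neutral pH and fluorescence read ([…]).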

[1] = test system: Aβ40 in conditioned medium of cells stably expressing Amyloid Precursor Protein (APP); assay: In vitro BACE cell-based assay (HEK cell assay), Aβ40 sandwich ELISA; settings: Homo sapiens, HEK293, 24 h, inhibition of Aβ40, 24 h incubation, read-out: HEK cell assay (IC50 class)
Summary of the method: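 APP-stably expressing cells (40K/well) grown 24 h, then treated 24 h with 10-point doses from 100 μM or 10 μM top (0.1% DMSO). Secreted Aβ40 quantified by sandwich ELISA (pAb40 capture, biotinylated 6E10 detection, europium time-resolved fluorescence); IC50 from percent inhibition versus concentration.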

[2] = read-out: BACE1 FRET assay (IC50 class)
[3] = read-out: BACE1 FRET assay (IC50, numeric)

Chain of BACE1 (P56817 46-501, species assumed): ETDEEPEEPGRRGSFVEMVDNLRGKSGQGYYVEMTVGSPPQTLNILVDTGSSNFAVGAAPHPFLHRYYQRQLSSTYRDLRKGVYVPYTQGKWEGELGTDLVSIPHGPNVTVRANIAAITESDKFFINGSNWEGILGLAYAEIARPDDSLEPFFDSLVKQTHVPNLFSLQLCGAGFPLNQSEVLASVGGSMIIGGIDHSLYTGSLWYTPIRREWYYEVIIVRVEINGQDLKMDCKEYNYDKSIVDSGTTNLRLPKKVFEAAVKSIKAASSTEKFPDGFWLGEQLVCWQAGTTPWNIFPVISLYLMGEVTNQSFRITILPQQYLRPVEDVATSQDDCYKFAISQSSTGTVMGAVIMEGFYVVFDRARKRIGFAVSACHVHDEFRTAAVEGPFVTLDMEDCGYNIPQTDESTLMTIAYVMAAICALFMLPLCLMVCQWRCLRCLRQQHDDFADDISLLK

| SMILES | IC50 (BACE1; [2]) | IC50 [1] | IC50 (BACE1; [3]) |
| --- | --- | --- | --- |
| Cc1cccc(C(=O)N2CCCCC2C)c1-c1ccc2nc(N)c(N3CCOCC3)cc2c1 (centres unmarked) [Example 87, (2-(2-amino-3-morpholinoquinolin-6-yl)-3-methylphenyl)(2-methylpiperidin-1-yl)methanone] | < 100 nM | 501 to 1000 nM | – |
| Cc1cccc(C(=O)N2CC(C)CC(C)C2)c1-c1ccc2nc(N)c(N3CCOCC3)cc2c1 (centres unmarked) [Example 88, (2-(2-amino-3-morpholinoquinolin-6-yl)-3-methylphenyl)(3,5-dimethylpiperidin-1-yl)methanone] | 100 to 500 nM | 1010 to 5000 nM | – |
| Cc1cccc(C(=O)N2CCSC2)c1-c1ccc2nc(N)c(N3CCOCC3)cc2c1 [Example 89, (2-(2-amino-3-morpholinoquinolin-6-yl)-3-methylphenyl)(thiazolidin-3-yl)methanone] | < 100 nM | 501 to 1000 nM | – |
| Cc1cccc(C(=O)N2CC=CC2)c1-c1ccc2nc(N)c(N3CCOCC3)cc2c1 [Example 90, (2-(2-amino-3-morpholinoquinolin-6-yl)-3-methylphenyl)(2,5-dihydro-1H-pyrrol-1-yl)methanone] | < 100 nM | 501 to 1000 nM | – |
| Cc1cccc(C(=O)N2CCSCC2)c1-c1ccc2nc(N)c(N3CCOCC3)cc2c1 [Example 91, (2-(2-amino-3-morpholinoquinolin-6-yl)-3-methylphenyl)(thiomorpholino)methanone] | < 100 nM | 1010 to 5000 nM | – |
| Cc1cccc(C(=O)N(C)C2CCCC2)c1-c1ccc2nc(N)c(N3CCOCC3)cc2c1 [Example 92, 2-(2-amino-3-morpholinoquinolin-6-yl)-N-cyclopentyl-N,3-dimethylbenzamide] | < 100 nM | 501 to 1000 nM | – |
| Cc1cccc(C(=O)N2CCC(C(C)(C)C)CC2)c1-c1ccc2nc(N)c(N3CCOCC3)cc2c1 [Example 93, (2-(2-amino-3-morpholinoquinolin-6-yl)-3-methylphenyl)(4-tert-butylpiperidin-1-yl)methanone] | < 100 nM | 501 to 1000 nM | – |
| Cc1cccc(C(=O)N2CCC[C@H]2C(F)(F)F)c1-c1ccc2nc(N)c(N3CCOCC3)cc2c1 [Example 94, (S)-(2-(2-amino-3-morpholinoquinolin-6-yl)-3-methylphenyl)(2-(trifluoromethyl)pyrrolidin-1-yl)methanone] | 100 to 500 nM | 1010 to 5000 nM | – |
| Cc1cccc(C(=O)N2CCC(F)CC2)c1-c1ccc2nc(N)c(N3CCOCC3)cc2c1 [Example 95, (2-(2-amino-3-morpholinoquinolin-6-yl)-3-methylphenyl)(4-fluoropiperidin-1-yl)methanone] | < 100 nM | 1010 to 5000 nM | – |
| Cc1cccc(C(=O)N2CCC(C(F)(F)F)C2)c1-c1ccc2nc(N)c(N3CCOCC3)cc2c1 (centres unmarked) [Example 96, (2-(2-amino-3-morpholinoquinolin-6-yl)-3-methylphenyl)(3-(trifluoromethyl)pyrrolidin-1-yl)methanone] | < 100 nM | 1010 to 5000 nM | – |
| Cc1cccc(C(=O)N2CCCC(F)(F)C2)c1-c1ccc2nc(N)c(N3CCOCC3)cc2c1 [Example 97, (2-(2-amino-3-morpholinoquinolin-6-yl)-3-methylphenyl)(3,3-difluoropiperidin-1-yl)methanone] | < 100 nM | 501 to 1000 nM | – |
| Cc1cccc(C(=O)N2CCC(F)(F)C2)c1-c1ccc2nc(N)c(N3CCOCC3)cc2c1 [Example 98, (2-(2-amino-3-morpholinoquinolin-6-yl)-3-methylphenyl)(3,3-difluoropyrrolidin-1-yl)methanone] | < 100 nM | 100 to 500 nM | – |
| Cc1cccc(C(=O)N2CC(F)(F)C2)c1-c1ccc2nc(N)c(N3CCOCC3)cc2c1 [Example 99, (2-(2-amino-3-morpholinoquinolin-6-yl)-3-methylphenyl)(3,3-difluoroazetidin-1-yl)methanone] | 100 to 500 nM | 501 to 1000 nM | – |
| Cc1cccc(C(=O)N(C)CC(F)(F)F)c1-c1ccc2nc(N)c(N3CCOCC3)cc2c1 [Example 100, 2-(2-amino-3-morpholinoquinolin-6-yl)-N,3-dimethyl-N-(2,2,2-trifluoroethyl)benzamide] | 100 to 500 nM | 1010 to 5000 nM | – |
| Cc1cccc(C(=O)N2CC[C@@H](C)C2)c1-c1ccc2nc(N)c(N3CCOCC3)cc2c1 [Example 101, (R)-(2-(2-amino-3-morpholinoquinolin-6-yl)-3-methylphenyl)(3-methylpyrrolidin-1-yl)methanone] | < 100 nM | 501 to 1000 nM | – |
| CCN(CC)C(=O)c1cccc(C)c1-c1ccc2nc(N)c(N3CCOCC3)cc2c1 [Example 102, 2-(2-amino-3-morpholinoquinolin-6-yl)-N,N-diethyl-3-methylbenzamide] | 100 to 500 nM | 1010 to 5000 nM | – |
| Cc1cccc(C(=O)N2CCC2)c1-c1ccc2nc(N)c(N3CCOCC3)cc2c1 [Example 103, (2-(2-amino-3-morpholinoquinolin-6-yl)-3-methylphenyl)(azetidin-1-yl)methanone] | 100 to 500 nM | 501 to 1000 nM | – |

| SMILES | IC50 (BACE1; [2]) | IC50 [1] | IC50 (BACE1; [3]) |
| --- | --- | --- | --- |
| Cc1cccc(C(=O)N(C)CC(C)C)c1-c1ccc2nc(N)c(N3CCOCC3)cc2c1 [Example 104, 2-(2-amino-3-morpholinoquinolin-6-yl)-N-isobutyl-N,3-dimethylbenzamide] | < 100 nM | 501 to 1000 nM | – |
| CCCN(CC)C(=O)c1cccc(C)c1-c1ccc2nc(N)c(N3CCOCC3)cc2c1 [Example 105, 2-(2-amino-3-morpholinoquinolin-6-yl)-N-ethyl-3-methyl-N-propylbenzamide] | 501 to 1000 nM | 1010 to 5000 nM | – |
| CCCN(C(=O)c1cccc(C)c1-c1ccc2nc(N)c(N3CCOCC3)cc2c1)C(C)C [Example 106, 2-(2-amino-3-morpholinoquinolin-6-yl)-N-isopropyl-3-methyl-N-propylbenzamide] | 501 to 1000 nM | > 5000 nM | – |
| CCN(C(=O)c1cccc(C)c1-c1ccc2nc(N)c(N3CCOCC3)cc2c1)C1CC1 [Example 107, 2-(2-amino-3-morpholinoquinolin-6-yl)-N-cyclopropyl-N-ethyl-3-methylbenzamide] | 100 to 500 nM | 1010 to 5000 nM | – |
| C#CCN(C)C(=O)c1cccc(C)c1-c1ccc2nc(N)c(N3CCOCC3)cc2c1 [Example 108, 2-(2-amino-3-morpholinoquinolin-6-yl)-N,3-dimethyl-N-(prop-2-ynyl)benzamide] | < 100 nM | 501 to 1000 nM | – |
| Cc1cccc(C(=O)N2CCC(F)(F)CC2)c1-c1ccc2nc(N)c(N3CCOCC3)cc2c1 [Example 109, (2-(2-amino-3-morpholinoquinolin-6-yl)-3-methylphenyl)(4,4-difluoropiperidin-1-yl)methanone] | < 100 nM | 501 to 1000 nM | – |
| CCCN(C)C(=O)c1cccc(C)c1-c1ccc2nc(N)c(N3CCOCC3)cc2c1 [Example 110, 2-(2-amino-3-morpholinoquinolin-6-yl)-N,3-dimethyl-N-propylbenzamide] | 100 to 500 nM | 1010 to 5000 nM | – |
| CCCN(CC1CC1)C(=O)c1cccc(C)c1-c1ccc2nc(N)c(N3CCOCC3)cc2c1 [Example 111, 2-(2-amino-3-morpholinoquinolin-6-yl)-N-(cyclopropylmethyl)-3-methyl-N-propylbenzamide] | – | > 5000 nM | 1540 nM |
| Cc1cccc(C(=O)N(C)C2CCCCC2)c1-c1ccc2nc(N)c(N3CCOCC3)cc2c1 [Example 112, 2-(2-amino-3-morpholinoquinolin-6-yl)-N-cyclohexyl-N,3-dimethylbenzamide] | < 100 nM | 1010 to 5000 nM | – |
| CCN(C(=O)c1cccc(C)c1-c1ccc2nc(N)c(N3CCOCC3)cc2c1)C1CCCCC1 [Example 113, 2-(2-amino-3-morpholinoquinolin-6-yl)-N-cyclohexyl-N-ethyl-3-methylbenzamide] | 100 to 500 nM | 1010 to 5000 nM | – |
| CSC1=NCCN1C(=O)c1cccc(C)c1-c1ccc2nc(N)c(N3CCOCC3)cc2c1 [Example 114, (2-(2-amino-3-morpholinoquinolin-6-yl)-3-methylphenyl)(2-(methylthio)-4,5-dihydro-1H-imidazol-1-yl)methanone] | – | > 5000 nM | 1140 nM |
| Cc1cccc(C(=O)N2CCCC(C)C2)c1-c1ccc2nc(N)c(N3CCOCC3)cc2c1 (centres unmarked) [Example 115, (2-(2-amino-3-morpholinoquinolin-6-yl)-3-methylphenyl)(3-methylpiperidin-1-yl)methanone] | < 100 nM | 501 to 1000 nM | – |
| C=CCN(CC=C)C(=O)c1cccc(C)c1-c1ccc2nc(N)c(N3CCOCC3)cc2c1 [Example 116, N,N-diallyl-2-(2-amino-3-morpholinoquinolin-6-yl)-3-methylbenzamide] | 100 to 500 nM | 1010 to 5000 nM | – |
| CCCCN(C)C(=O)c1cccc(C)c1-c1ccc2nc(N)c(N3CCOCC3)cc2c1 [Example 117, 2-(2-amino-3-morpholinoquinolin-6-yl)-N-butyl-N,3-dimethylbenzamide] | < 100 nM | 1010 to 5000 nM | – |
| CCCCN(CC)C(=O)c1cccc(C)c1-c1ccc2nc(N)c(N3CCOCC3)cc2c1 [Example 118, 2-(2-amino-3-morpholinoquinolin-6-yl)-N-butyl-N-ethyl-3-methylbenzamide] | 501 to 1000 nM | 1010 to 5000 nM | – |
| Cc1cccc(C(=O)N(C)CCC(C)C)c1-c1ccc2nc(N)c(N3CCOCC3)cc2c1 [Example 119, 2-(2-amino-3-morpholinoquinolin-6-yl)-N-isopentyl-N,3-dimethylbenzamide] | 100 to 500 nM | 1010 to 5000 nM | – |
| CCCC(C)N(C)C(=O)c1cccc(C)c1-c1ccc2nc(N)c(N3CCOCC3)cc2c1 (centres unmarked) [Example 120, 2-(2-amino-3-morpholinoquinolin-6-yl)-N,3-dimethyl-N-(pentan-2-yl)benzamide] | < 100 nM | 1010 to 5000 nM | – |

Source: patent US8735384B2, “Amino heteroaryl compounds as beta-secretase modulators and methods of use” (Amgen Inc., priority 2010, dated 2014)
